Where two headings read alike, the source gives them in different places.
Experiments:
[1] = system: male OFl mice; test: Pentetrazole seizure (mortality after i.p. pentetrazole 125 mg/kg); format: in vivo; details: for ED50: Mus musculus, po, 0.25 h; for Pentetrazole seizure, % protection: 15 minutes
Procedure: This test was carried out on batches of 10 male OFl mice which had fasted since the day before and were placed in individual cages, in accordance with the method of Cheymol (J.) Acta. Pharmacol., (1950), 2, 1-55.
The treatments were carried out perorally 15 minutes before intraperitoneal (i.p.) injection of a solution of pentetrazole (125 mg/kg).
The mortality is recorded 3 hours after this injection.
It is to be noted that the 50% effective doses (ED50), where these have been determined, were calculated by the method of MOOD (J. Am. Statist. Assoc., (1965), 60, 967-78).

[2] = Sedative activity: Rotarod test; format: in vivo, mice (male); details: mouse, in vivo, po
Procedure: (§1) This test is used for the purpose of assessing the ability of the animals to coordinate their movements. It uses a wooden cylinder which has a diameter of 4.8 cm and revolves at a speed of 4 revolutions/minute. The test is carried out on male mice weighing about 22 g. The products are administered perorally (p.o.) to batches of 10 animals per dose. The animals are placed on the apparatus 15 minutes after administration of the product. The percentage of mice which lose their equilibrium reflex, that is to say which become incapable of retaining their balance on the cylinder for a period of 2 minutes, is noted.
(§2) Using the regression straight line method, a 50% neurotoxic dose (NTD 50) is calculated, which thus expresses the average level of the first neuromuscular effects under the influence of the studied product.

[3] = system: mouse; test: Ouabain seizure; format: in vivo; details: po, 0.25 h, read-out: Ouabain seizure, ED50
Procedure: Ouabain was administered intra-ventricularly at a dose of 5 γ/mouse in a volume of 0.02 ml.

[4] = system: male Swiss mice; test: Maximum electrical seizure; format: in vivo; details: for ED50: Mus musculus, po, 0.25 h, read-out: Maximum electrical seizure, ED50; for Maximum electrical seizure, % protection: peroral, 15 minutes
Description: Maximum electrical seizure
The technique used is that recommended by GOODMAN (L. S.), SING-GREWALD (M.), BROWN (V. C.) and […] (E. A.), Am.
The animals tested are male Swiss mice grouped into batches of 10. The normal threshold of the electric shock which is capable of causing tonic extension of the front paws is first determined for each animal.

[5] = Acute toxicity, peroral; details: mouse, in vivo, po
Procedure: In order to locate the boundary separating the pharmacological effects from the toxicity of the products, a very approximate assessment of the toxicity was carried out on mice (batches of 10 animals) after peroral treatment.

[6] = system: mice; test: Anoxia as a result of confinement; format: in vivo; details: Mus musculus, ip, read-out: Anoxia as a result of confinement, % increase in the survival time
Procedure: Anoxia as a result of confinement
Mice (in batches of 20) are placed in a 200 cm^3 hermetically sealed chamber (a wide-mouthed glass vessel) which is under normal pressure and has a normal content of atmospheric oxygen. All of the treatments are administered intraperitoneally immediately before introduction into the chamber. The animal is considered to be dead at the moment when breathing stops.
Since the wide-mouthed vessels chosen are very small, the motor activity of the animals is extremely low and this eliminates, in principle, the possibility of a positive result due to a sedative effect.
Therefore, the percentage increase in the survival time of the treated animals is noted, relative to the batch.

[7] = system: male mice; test: Sedative activity: Rotarod test; format: in vivo; details: peroral, mice
Procedure: as §1, §2

[8] = system: mice; test: β-Mercaptopropionic acid seizure; format: in vivo; details: for ED50: Mus musculus, po, 0.25 h, read-out: β-Mercaptopropionic acid seizure, ED50; for β-Mercaptopropionic acid seizure, % protection: at 400 mg/kg, peroral, 15 minutes
Procedure: β-Mercaptopropionic acid seizure
β-Mercaptopropionic acid is an inhibitor of glutamatedecarboxylase (GAD), which is an enzyme which catalyses the conversion of glutamate to γ-aminobutyric acid (GABA). Its action thus manifests itself in a lowering of the GABA level and the occurrence of general tonico-clonic seizures 3 to 4 minutes after it has been administered. β-Mercaptopropionic acid was administered to mice intraperitoneally at a dose of 40 mg/kg.

[9] = Table III, mice, peroral, 15 minutes after administration, read-out: DE 50, Pentetrazole crisis test
[10] = ouabain 5 γ/mouse intra-ventricularly, measured 15 minutes after peroral treatment
[11] = Table IV, mice, measured 15 minutes after peroral treatment, read-out: Pentetrazole seizure, ED50
[12] = mice, measured 15 minutes after peroral treatment
[13] = peroral, 15 minutes after administration, male mice, read-out: Sedative activity, Rotarod test, ED50
[14] = read-out: Pentetrazole seizure, ED50
[15] = read-out: DE 50, Pentetrazole crisis test
[16] = β-mercaptopropionic acid 40 mg/kg i.p., mice, 15 minutes after peroral treatment
[17] = at 50 mg/kg, intraperitoneal, mice

## CCC1(C(=O)O)CCCCC1 [Example 15]
[1]; [9]
  ED50: 120 mg/kg

## COCC1(C(N)=O)CCCCC1 [Example 31]
[2]
  TD50 at 0.25 h: 300 mg/kg
[3]; [10]
  ED50: 250 mg/kg
[1]; [11]
  ED50: 195 mg/kg
[4]; [12]
  ED50: 200 mg/kg
[5]; 500 mg/kg
  mortality: 0%

## C#CC1(C(=O)O)CCCCC1 [Example 17]
[6]; at 210 mg/kg, intraperitoneal, mice
  ILS at 210 mg/kg: 23%
[7]; at 500 mg/kg
  Rotarod test, % of failures: 0%
[3]; [10]
  ED50: 933 mg/kg
[1]; at 170 mg/kg, peroral, mice
  Pentetrazole seizure, % protection: 30%
[4]; at 170 mg/kg, mice
  Maximum electrical seizure, % protection: 13%

## O=C([O-])C1(CC(Br)=CBr)CCCCC1.[Na+]
[6]
  ILS at 190 mg/kg: 50%
[2]; [13]
  TD50 at 0.25 h: 280 mg/kg
[3]; Mus musculus
  ED50: > 900 mg/kg
[1]; [14]
  ED50: 240 mg/kg
[8]
  ED50: 340 mg/kg
[4]; at 600 mg/kg, mice
  Maximum electrical seizure, % protection: 60%
[5]; at 600 mg/kg, peroral, mice
  mortality: 0%

## CCCC(CCC)C(=O)[O-].[Na+] [Depakene, sodium dipropyl-acetate, reference compound]
[1]; [15]
  ED50: 142 mg/kg

## CC(C)C1(C(=O)O)CCCCC1 [Example 16]
[1]; [9]
  ED50: 110 mg/kg

## CC(C)C1(C(N)=O)CCCCC1 [Example 29]
[6]; at 25 mg/kg, intraperitoneal, mice
  ILS at 25 mg/kg: 16%
[2]
  TD50 at 0.25 h: 35 mg/kg
[3]; [10]
  ED50: 31 mg/kg
[1]; [11]
  ED50: 15 mg/kg
[8]; [16]
  ED50: 12 mg/kg
[4]; [12]
  ED50: 70 mg/kg
[5]; 500 mg/kg
  mortality: 100%

## C=CCC1(C(=O)[O-])CCCCC1.[Na+] [Example 22, Sodium 1-allyl-1-cyclohexyl-carboxylate]
[6]
  ILS at 240 mg/kg: 59%
[7]; at 600 mg/kg
  Rotarod test, % of failures: 20%
[3]; [10]
  ED50: 638 mg/kg
[1]; [14]
  ED50: 154 mg/kg
[4]; at 200 mg/kg, mice
  Maximum electrical seizure, % protection: 80%

## NC(=O)C1(CBr)CCCCC1 [Example 26]
[6]
  ILS at 50 mg/kg: 6%
[2]; [13]
  TD50 at 0.25 h: 125 mg/kg
[1]; [14]
  ED50: 75 mg/kg
[8]; [16]
  ED50: 46 mg/kg
[5]; at 500 mg/kg, peroral, mice
  mortality: 0%

## C#CCC1(C(=O)[O-])CCCCC1.[Na+]
[6]
  ILS at 280 mg/kg: 48%
[7]; at 550 mg/kg
  Rotarod test, % of failures: 40%
[3]; Mus musculus
  ED50: 507 mg/kg
[1]; [14]
  ED50: 120 mg/kg
[8]
  ED50: 245 mg/kg
[4]
  ED50: 478 mg/kg
[5]; at 950 mg/kg, peroral, mice
  mortality: 10%

## CC(C)(Cl)C1(C(N)=O)CCCCC1 [Example 39, 1-(1-chloro-1-methylethyl)-1-cyclohexyl-carboxamide]
[1]; [11]
  ED50: 66 mg/kg
[8]; [16]
  ED50: 63 mg/kg

## O=C([O-])C1(Cc2ccccc2)CCCCC1.[Na+]
[6]
  ILS at 170 mg/kg: 44%
[2]; [13]
  TD50 at 0.25 h: 650 mg/kg
[3]; Mus musculus
  ED50: 638 mg/kg
[1]; [14]
  ED50: 116 mg/kg
[8]
  ED50: 257 mg/kg
[4]
  ED50: 431 mg/kg
[5]; 1000 mg/kg, at 1,000 mg/kg, peroral, mice
  mortality: 20%

## O=C(CBr)CC1(C(=O)O)CCCCC1 [Example 47, 1-bromoacetonyl-1-cyclohexyl-carboxylic acid]
[6]; at 130 mg/kg, intraperitoneal, mice
  ILS at 130 mg/kg: 24%
[1]; at 395 mg/kg, peroral, mice
  Pentetrazole seizure, % protection: 0%
[8]; mice
  β-Mercaptopropionic acid seizure, % protection: 30%
[5]; at 790 mg/kg, peroral, mice
  mortality: 30%

## NC(=O)C1(CCOc2ccccc2)CCCCC1 [Example 54, 1-(2-phenoxyethyl)-1-cyclohexyl-carboxamide]
[2]
  TD50 at 0.25 h: 160 mg/kg
[1]; [11]
  ED50: 198 mg/kg
[8]; [16]
  ED50: 86 mg/kg

## C=C(Cl)CC1(C(N)=O)CCCCC1 [Example 24, 1-(2'-chloro-2'-propenyl)-1-cyclohexyl-carboxamide]
[6]; [17]
  ILS at 50 mg/kg: 0%
[2]
  TD50 at 0.25 h: 125 mg/kg
[3]; [10]
  ED50: 96 mg/kg
[1]; [11]
  ED50: 57 mg/kg
[8]; [16]
  ED50: 64 mg/kg
[4]; [12]
  ED50: 101 mg/kg
[5]; 500 mg/kg
  mortality: 20%

## C=CC1(C(=O)[O-])CCCCC1.[Na+] [Example 37, Sodium 1-vinyl-1-cyclohexyl-carboxylate]
[1]; [14]
  ED50: 95 mg/kg

## COCC1(C(=O)O)CCCCC1 [Example 55]
[7]; at 600 mg/kg
  Rotarod test, % of failures: 0%
[3]; [10]
  ED50: 950 mg/kg
[1]; [11]
  ED50: 190 mg/kg
[4]; at 190 mg/kg, mice
  Maximum electrical seizure, % protection: 0%

## C=CCC1(C(N)=O)CCCCC1 [Example 27]
[6]; [17]
  ILS at 50 mg/kg: 0%
[2]
  TD50 at 0.25 h: 75 mg/kg
[3]; [10]
  ED50: 66 mg/kg
[1]; [11]
  ED50: 20 mg/kg
[8]; [16]
  ED50: 38 mg/kg
[4]; [12]
  ED50: 55 mg/kg
[5]; 500 mg/kg
  mortality: 100%

## CC(C)(C)C1(C(=O)[O-])CCCCC1.[Na+] [Example 41, Sodium 1-tert-butyl-1-cyclohexyl-carboxylate]
[1]; [15]
  ED50: 131 mg/kg

## C#CCC1(C(N)=O)CCCCC1 [Example 30]
[2]; [13]
  TD50 at 0.25 h: 125 mg/kg
[3]; [10]
  ED50: 170 mg/kg
[1]; [14]
  ED50: 65 mg/kg
[4]; [12]
  ED50: 91 mg/kg
[5]; at 500 mg/kg, peroral, mice
  mortality: 20%

## NC(=O)C1(Cc2ccccc2)CCCCC1 [Example 32]
[6]; [17]
  ILS at 50 mg/kg: 0%
[2]
  TD50 at 0.25 h: 125 mg/kg
[3]; [10]
  ED50: 200 mg/kg
[1]; [11]
  ED50: 32 mg/kg
[8]; [16]
  ED50: 200 mg/kg
[4]; [12]
  ED50: 115 mg/kg

## O=C(O)C1(CC#CBr)CCCCC1 [Example 35, 1-(3-bromo-2-propynyl)-1-cyclohexyl-carboxylic acid]
[2]
  TD50 at 0.25 h: 245 mg/kg
[1]; [11]
  ED50: 335 mg/kg
[8]; mice
  β-Mercaptopropionic acid seizure, % protection: 30%
[4]; at 735 mg/kg, mice
  Maximum electrical seizure, % protection: 20%
[5]; at 735 mg/kg, peroral, mice
  mortality: 0%

## C=C(Cl)C1(C(=O)O)CCCCC1 [Example 18]
[6]; at 260 mg/kg, intraperitoneal, mice
  ILS at 260 mg/kg: 40%
[7]; at 600 mg/kg
  Rotarod test, % of failures: 0%
[3]; [10]
  ED50: 851 mg/kg
[1]; at 200 mg/kg, peroral, mice
  Pentetrazole seizure, % protection: 40%

## CC1(C(=O)[O-])CCCCC1.[Na+]
[6]
  ILS at 160 mg/kg: 29%
[2]; [13]
  TD50 at 0.25 h: 1020 mg/kg
[3]; Mus musculus
  ED50: 600 mg/kg
[1]; [14]
  ED50: 317 mg/kg
[8]
  ED50: 118 mg/kg
[4]
  ED50: 563 mg/kg
[5]; at 1882 mg/kg, peroral, mice
  mortality: 50%

## CC1(C(N)=O)CCCCC1 [Example 28]
[6]; at 70 mg/kg, intraperitoneal, mice
  ILS at 70 mg/kg: 30%
[2]
  TD50 at 0.25 h: 425 mg/kg
[1]; [11]
  ED50: 178 mg/kg
[8]; [16]
  ED50: 100 mg/kg
[4]; [12]
  ED50: 311 mg/kg
[5]; 752 mg/kg
  mortality: 50%

## CC(=O)CC1(C(=O)[O-])CCCCC1.[Na+] [Example 46, Sodium 1-acetonyl-1-cyclohexyl-carboxylate]
[7]; at 600 mg/kg
  Rotarod test, % of failures: 0%
[3]; [10]
  ED50: > 900 mg/kg
[1]; [14]
  ED50: 300 mg/kg
[8]; [16]
  ED50: 270 mg/kg

## CC(C)(C)C1(C(N)=O)CCCCC1 [Example 42, 1-tert-butyl-1-cyclohexyl-carboxamide]
[1]; [11]
  ED50: 79 mg/kg
[8]; [16]
  ED50: 95 mg/kg

— patent US4283420A, “Pharmaceutically active cyclohexyl compounds and their preparation” (Labaz, priority 1978, dated 1981)
